Target: Sterol 14-alpha demethylase (Trypanosoma cruzi (strain CL Brener), UniProt Q7Z1V1)
Assay: Spectral Titration of TCCYP51
Conditions: pH 7.4; 24 °C
Method: As a cysteine-coordinated hemoprotein, sterol 14-alpha-demethylase responds spectrally to any perturbations in the area surrounding the heme iron. These spectral responses can be used to estimate the apparent dissociation constants (Kd) of the enzyme/ligand complexes. […] The tested compounds were added in 1 ul aliquots to the test cuvette until the maximum in spectral response was reached. Equal volumes of DMSO were added to the reference cuvette. The apparent Kd values were determined from the equilibrium titration curves by plotting absorbance changes against the concentration of free ligand and fitting the data to a rectangular hyperbola using SigmaPlot Statistics.

Sterol 14-alpha demethylase, sequence (Q7Z1V1 whole entry): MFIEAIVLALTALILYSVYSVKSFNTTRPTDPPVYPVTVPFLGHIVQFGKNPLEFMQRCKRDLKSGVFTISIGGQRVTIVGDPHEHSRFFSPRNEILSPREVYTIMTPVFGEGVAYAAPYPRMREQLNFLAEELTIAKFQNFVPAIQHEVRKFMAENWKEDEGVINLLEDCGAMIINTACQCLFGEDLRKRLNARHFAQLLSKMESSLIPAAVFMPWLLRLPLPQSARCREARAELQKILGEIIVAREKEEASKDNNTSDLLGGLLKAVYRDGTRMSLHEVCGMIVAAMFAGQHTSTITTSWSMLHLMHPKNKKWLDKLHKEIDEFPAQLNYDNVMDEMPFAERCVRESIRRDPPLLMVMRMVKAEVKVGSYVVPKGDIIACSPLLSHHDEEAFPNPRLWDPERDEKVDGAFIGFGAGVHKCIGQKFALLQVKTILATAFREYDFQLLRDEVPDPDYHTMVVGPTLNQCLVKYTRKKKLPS

Compound: COc1ccc2c(c1)c(CC(=O)Nc1cccnc1C)c(C)n2C(=O)c1ccc(Cl)cc1 [Indomethacin-amide derivative, 13]
- Kd: 7600 nM

Compound: COc1ccc2c(c1)c(CC(=O)NCc1ccc(Cl)nc1)c(C)n2C(=O)c1ccc(Cl)cc1 [Indomethacin-amide derivative, 18]
- Kd: 260 nM

Compound: COc1ccc2c(c1)c(CC(=O)NCc1ccc(C(F)(F)F)nc1)c(C)n2C(=O)c1ccc(Cl)cc1 [Indomethacin-amide derivative, 19]
- Kd: 560 nM

From BindingDB's records for doi:10.1021/jm801643b (Vanderbilt University, 2009)
